Test results reported in patent US4970297A, “Transglutaminase inhibitors” (Syntex (U.S.A.) Inc., priority 1987, dated 1990).

Key:
transglutaminase = conditions: previously reported inhibitors; cited from earlier work
[1] = tested on: Nippostronglus braziliensis; assay: In vitro assay against Nippostronglus braziliensis; assay type: cell-based; design: key: A compound is defined as active if (1) cast formation is reduced 50 percent or more or (2) viability and motility together are reduced 50 percent or more; conditions: 50 μg/ml, fourth larval stage (L4), incubated at 37° C. for seven days
Description: N-Benzyloxycarbonyl-D,L-β-(3-bromo-4,5-dihydroisoxazol-5-yl)-alanine benzylamide was active against Nippostronglus braziliensis in an in vitro assay.
Rats were inoculated with 5,000 to 6,000 N. braziliensis third stage larvae subcutaneously. Seventy-two hours later rats were sacrificed and the fourth stage larvae harvested. Each drug was tested at 50 μg/ml against the fourth larval stage (L4) of N. braziliensis at approximately 50 L4/well. This mixture was incubated at 37° C. for a total of seven days and then read for activity. Parameters used to determine drug activity are motility, percent viability, and percent of L4 able to molt to the adult (percent cast formation). A compound is defined as active if (1) cast formation is reduced 50 percent or more or (2) viability and motility together are reduced 50 percent or more.

Hymenolepsis nana = assay: In vivo assay of anthelmintic activity, mixed helminth infection in mice; design: species or system Swiss-Webster mice; conditions: 1000 ppm in the food ad lib for 11 days from 24 hours post-infection, sacrificed on day 17
Description: (§1) Male, Swiss-Webster mice were challenged with a mixed helminth infection of Nematospiroides dubius and Hymenolepsis nana. Starting 24 hours post-infection (p.i.) mice were treated for 11 days ad lib with N-Benzyloxycarbonyl-D,L-β-(3-bromo-4,5-dihydroisoxazol-5-yl)-alanine benzylamide mixed in the food at 1000 ppm. Animals were sacrificed on day 17 to examine parasite burden in the intestine.

Nematospiroides dubius = assay: as above; design: species or system Swiss-Webster mice; conditions: 1000 ppm in the food ad lib for 11 days from 24 hours post-infection, sacrificed on day 17
Description: as §1

[2] = tested on: galactose-induced cataracts; assay: Cataract therapy: galactose-induced cataracts; assay type: in vivo; conditions: oral route in the diet at 0.05%
human T-lymphocyte = assay: Human T-lymphocyte transformation in vitro; assay type: cell-based; conditions: at 10^-6 in vitro
Description: Transglutaminase inactivator, N-benzyloxycarbonyl-D,L-β-(3-bromo-4,5-dihydroisoxazol-5-yl)-alanine (4-(ethoxycarbonyl)phenyl)amide, inhibited human T-lymphocyte transformation at 10^-6 in vitro.

tissue transglutaminase = molecular target: T1, tissue transglutaminase (UniProt P08587); assay: Inactivation of tissue transglutaminase; assay type: biochemical
T1 construct: Liver transglutaminase from guinea pig liver was isolated and partially purified; from tissue; host or cells: guinea pig liver
Description: Liver transglutaminase from guinea pig liver was isolated and partially purified according to the procedure outlined in "Methods of Enzymology", Vol. 113, pp. 358-375, with minor modifications. The 105,000×g supernatant from the 15,000×g supernatant of a crude homogenate of guinea pig liver, was chromatographed on DEAE-Sepharose CL-6B. Enzymatic activity was eluted with a 0-1.0M NaCl gradient in 5 mM TRIS, 2 mM EDTA pH 7.5 buffer. Fractions containing activity were pooled, dialyzed against 50 mM TRIS-HCl, 2 mM EDTA, pH 7.5 buffer and concentrated, when necessary, by Amicon Ultrafiltration (PM 10 filters).
The activity and inhibition of guinea pig liver transglutaminase was assayed by measurement of the rate of incorporation of hydroxylamine into simple glutaminyl peptide derivatives, preferably CBZ-(L)-Glutaminyl-Glycine (see Folk and Chung, "Methods in Enzymology", Vol. 113, pp. 359-361). […]
Prior to activity determination, guinea pig liver transglutaminase was activated anaerobically with 5 mM calcium chloride and 1 mM dithiothreitol at 25° C. […] The concentration of product formed after 10-25 minutes incubation was determined by quenching with 250 microliters of acidic ferric chloride reagent and measurement of the absorbance at 525 nm using a Gilford 2600 UV/VIS spectrophotometer. Typical uninhibited samples provided sufficient product for 0.5 absorbance units at 525 nm. […]

T1 sequence (P08587 whole entry): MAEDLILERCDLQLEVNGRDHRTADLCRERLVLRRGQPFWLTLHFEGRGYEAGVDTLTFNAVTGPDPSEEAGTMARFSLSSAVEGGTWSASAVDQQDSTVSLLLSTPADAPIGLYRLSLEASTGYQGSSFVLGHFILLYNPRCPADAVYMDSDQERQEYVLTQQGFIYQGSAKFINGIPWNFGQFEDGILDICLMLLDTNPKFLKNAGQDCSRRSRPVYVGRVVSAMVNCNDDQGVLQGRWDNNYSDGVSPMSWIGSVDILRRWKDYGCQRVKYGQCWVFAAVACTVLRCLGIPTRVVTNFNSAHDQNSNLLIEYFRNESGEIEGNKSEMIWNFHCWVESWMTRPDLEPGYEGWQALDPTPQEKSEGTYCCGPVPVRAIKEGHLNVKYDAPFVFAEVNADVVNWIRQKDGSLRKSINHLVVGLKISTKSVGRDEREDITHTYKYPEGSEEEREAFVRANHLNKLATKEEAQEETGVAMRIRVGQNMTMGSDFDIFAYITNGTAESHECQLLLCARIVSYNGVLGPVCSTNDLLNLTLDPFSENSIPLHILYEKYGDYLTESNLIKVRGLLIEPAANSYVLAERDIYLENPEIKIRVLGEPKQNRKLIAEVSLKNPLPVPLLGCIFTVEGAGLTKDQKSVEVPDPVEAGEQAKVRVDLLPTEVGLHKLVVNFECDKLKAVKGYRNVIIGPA

NCCSSCCN [cystamine]
concentration at which effective as transglutaminase inhibitor (transglutaminase): greater than 10^-3 M | specificity for transglutaminases (transglutaminase): lacks specificity

O=C(NC(CC1CC(Br)=NO1)C(=O)NCc1ccccc1)OCc1ccccc1 (racemic) [N-Benzyloxycarbonyl-D,L-β-(3-bromo-4,5-dihydroisoxazol-5-yl)-alanine benzylamide]
activity against Nippostronglus braziliensis (cast formation, viability and motility) [1]: active | percent reduction of parasites in the intestine (Hymenolepsis nana) (Hymenolepsis nana): significant percent reduction of parasites | percent reduction of parasites in the intestine (Nematospiroides dubius) (Nematospiroides dubius): significant percent reduction of parasites

CCOC(=O)c1ccc(NC(=O)C(CC2CC(Br)=NO2)NC(=O)OCc2ccccc2)cc1 (racemic) [N-benzyloxycarbonyl-D,L-β-(3-bromo-4,5-dihydroisoxazol-5-yl)-alanine (4-(ethoxycarbonyl)phenyl)amide]
onset of galactose-induced cataracts [2]: delayed the onset | cytotoxicity associated with the inhibition of T-lymphocyte transformation (human T-lymphocyte): not associated with cytotoxicity | inhibition of human T-lymphocyte transformation (human T-lymphocyte): inhibited | inactivation of tissue transglutaminase (tissue transglutaminase): potent inactivator
